In DBAASP:
In brackets after ≈: the same amount, converted by molar mass. Several values for one entry are separate records, joined by “and”; a condition that tells them apart may be missing. Equal entries are not always repeated. Blank lines part the entries; values can stand above or below the molecule they belong to.

Columns and labels:
Experiment in all cases: ≥ marks a high value that may be exact or a test limit, other limits are often not marked, values filed in µg/mL are converted to µM
[1] = test system: Mycobacterium tuberculosis CAS3
[2] = test system: Mycobacterium tuberculosis WXY
[3] = test system: Mycobacterium tuberculosis H37Rv
Candida albicans MDM8 = test system: Candida albicans MDM8
[4] = test system: Aspergillus fumigatus NCPF 2109
Aspergillus flavus = test system: Aspergillus flavus
[5] = test system: Candida tropicalis IOC 4560
[6] = test system: Cryptococcus neoformans var. grubii H99
[7] = test system: Saccharomyces cerevisiae ATCC 2601
Aspergillus niger A296 = test system: Aspergillus niger A296
[8] = test system: Candida parapsilosis IOC 4564
[9] = test system: Pseudomonas aeruginosa ATCC 27853
[10] = test system: Staphylococcus pseudintermedius
[11] = test system: Staphylococcus aureus ATCC 29213
Pseudomonas aeruginosa = test system: Pseudomonas aeruginosa
[12] = test system: Salmonella enterica subsp. enterica serovar Typhimurium ATCC 14028
[13] = test system: Escherichia coli ATCC 25922
[14] = test system: Bacillus cereus ATCC 10876
[15] = test system: Streptococcus iniae KCTC 3657
[16] = test system: Staphylococcus aureus ATCC 43300
Klebsiella pneumoniae = test system: Klebsiella pneumoniae
[17] = test system: Pseudomonas aeruginosa PAO1
Streptococcus pneumoniae = test system: Streptococcus pneumoniae
Candida albicans = test system: Candida albicans
Escherichia coli = test system: Escherichia coli
Escherichia coli 1005 = test system: Escherichia coli 1005
[18] = test system: Staphylococcus epidermidis ATCC 12228
[19] = test system: Candida parapsilosis CGMCC 2.3989
[20] = test system: Candida krusei CGMCC 2.1857
Staphylococcus aureus = test system: Staphylococcus aureus
[21] = test system: Candida tropicalis CGMCC 2.1975
[22] = test system: Salmonella enterica subsp. enterica serovar Pullorum ATCC 7913
[23] = test system: Staphylococcus aureus ATCC 25923
[24] = test system: Bacillus subtilis KCTC 3068
[25] = test system: Salmonella typhimurium CMCC 50013
[26] = test system: Salmonella enterica subsp. enterica serovar Pullorum C79-13
Escherichia coli K99 = test system: Escherichia coli K99
Acinetobacter baumannii = test system: Acinetobacter baumannii
[27] = test system: Pseudomonas aeruginosa CICC 21630
[28] = test system: Pseudomonas aeruginosa CICC 21625
Escherichia coli UB1005 = test system: Escherichia coli UB1005
Escherichia coli K88 = test system: Escherichia coli K88
[29] = test system: Salmonella enterica subsp. enterica serovar Typhimurium C77-31

MIC [1]: ≥ 93.1 µM
MIC [2]: ≥ 93.1 µM
MIC [3]: ≥ 93.1 µM
SMILES: CC(C)C[C@H](NC(=O)[C@H](C)NC(=O)[C@H](C)NC(=O)[C@H](CCCN=C(N)N)NC(=O)[C@H](CO)NC(=O)[C@H](CC(C)C)NC(=O)[C@H](CCCCN)NC(=O)[C@H](CCCCN)NC(=O)[C@H](CCCCN)NC(=O)[C@H](C)N)C(=O)N[C@@H](CCCN=C(N)N)C(=O)N[C@@H](C)C(=O)N[C@@H](C)C(=O)N[C@H](C(=O)N[C@@H](CCCCN)C(=O)O)C(C)C [AKKKLSRAALRAAVK]

MIC (Candida albicans MDM8): 2.1 µM (≈ 3.94 µg/mL)
MIC [4]: 6.3 µM (≈ 11.8 µg/mL)
MIC (Aspergillus flavus): ≥ 50 µM
MIC [5]: 2.1 µM (≈ 3.94 µg/mL)
MIC [6]: 1.6 µM (≈ 3 µg/mL)
MIC [7]: 3.1 µM (≈ 5.82 µg/mL)
MIC (Aspergillus niger A296): 12.5 µM (≈ 23.5 µg/mL)
MIC [8]: 12.5 µM (≈ 23.5 µg/mL)
SMILES: CC(C)C[C@H](NC(=O)[C@H](CC(C)C)NC(=O)[C@H](CCCCN)NC(=O)[C@@H](N)Cc1ccccc1)C(=O)N[C@@H](CO)C(=O)N[C@@H](Cc1cnc[nH]1)C(=O)N[C@@H](CO)C(=O)N[C@@H](CC(C)C)C(=O)N[C@@H](CC(C)C)C(=O)N[C@H](C(=O)N[C@H](C(=O)N[C@@H](CC(C)C)C(=O)N[C@@H](C)C(=O)N[C@@H](CO)C(=O)N[C@@H](Cc1cnc[nH]1)C(=O)N[C@@H](CC(C)C)C(=O)N1CCC[C@H]1C(=O)O)[C@@H](C)O)C(C)C [FKLLSHSLLVTLASHLP]

MIC [9]: 27.6 µM (≈ 65.1 µg/mL)
MIC [10]: 27.6 µM (≈ 65.1 µg/mL)
MIC [11]: 27.6 µM (≈ 65.1 µg/mL)
MIC (Pseudomonas aeruginosa): 55.2 µM (≈ 130 µg/mL)
SMILES: CC[C@H](C)[C@H](NC(=O)[C@@H]1CCCN1C(C)=O)C(=O)N[C@@H](Cc1cnc[nH]1)C(=O)N[C@@H](CCCN=C(N)N)C(=O)N[C@@H](CCCN=C(N)N)C(=O)N[C@H](C(=O)N1CCC[C@H]1C(=O)N1CCC[C@H]1C(=O)N[C@@H](CCCN=C(N)N)C(=O)N[C@@H](Cc1c[nH]c2ccccc12)C(=O)N1CCC[C@H]1C(=O)N[C@@H](CCCN=C(N)N)C(=O)N[C@@H](CC(C)C)C(=O)N[C@@H](CCCCN)C(=O)N[C@@H](CCCN=C(N)N)C(=O)N[C@@H](CCCN=C(N)N)C(=O)N[C@@H](Cc1c[nH]c2ccccc12)C(N)=O)[C@@H](C)CC [PIHRRIPPRWPRLKRRW]

MIC [9]: 0.839 µM (≈ 3 µg/mL)
MIC [12]: 0.42 µM (≈ 1.5 µg/mL)
MIC [11]: > 35.8 µM
MIC [13]: 0.559 µM (≈ 2 µg/mL)
MIC [14]: 12.9 µM (≈ 46 µg/mL)
MIC [15]: 8.95 µM (≈ 32 µg/mL)
SMILES: CC[C@H](C)[C@H](NC(=O)[C@H](Cc1ccccc1)NC(=O)[C@@H](NC(=O)[C@H](CCCCN)NC(=O)[C@@H](NC(=O)[C@H](CCCCN)NC(=O)[C@H](CCCCN)NC(=O)[C@H](Cc1ccccc1)NC(=O)[C@@H](NC(=O)[C@H](CCCCN)NC(=O)[C@H](CCCN=C(N)N)NC(=O)[C@H](Cc1ccccc1)NC(=O)CNC(=O)[C@H](CCCCN)NC(=O)[C@H](CCCCN)NC(=O)[C@@H](NC(=O)[C@H](CCCCN)NC(=O)[C@H](CCCN=C(N)N)NC(=O)[C@H](Cc1ccccc1)NC(=O)[C@H](Cc1ccccc1)NC(=O)[C@H](CCCCN)NC(=O)[C@H](CCCCN)NC(=O)[C@H](Cc1ccccc1)NC(=O)[C@H](CCCN=C(N)N)NC(=O)[C@H](CCCCN)NC(=O)[C@@H](NC(=O)[C@@H](N)CCCN=C(N)N)C(C)C)[C@@H](C)CC)[C@@H](C)CC)[C@@H](C)O)[C@@H](C)CC)C(=O)NCC(=O)O [RVKRFKKFFRKIKKGFRKIFKKTKIFIG]

MIC [16]: 2 µM (≈ 3.15 µg/mL)
MIC [12]: 4 µM (≈ 6.29 µg/mL)
MIC (Klebsiella pneumoniae): 32 µM (≈ 50.3 µg/mL)
MIC [17]: 16 µM (≈ 25.2 µg/mL)
MIC (Streptococcus pneumoniae): ≥ 32 µM
MIC (Candida albicans): 2.83 µM (≈ 4.45 µg/mL)
MIC [11]: 4 µM (≈ 6.29 µg/mL)
MIC (Escherichia coli): 8 µM (≈ 12.6 µg/mL)
MIC (Escherichia coli 1005): 2 µM (≈ 3.15 µg/mL)
MIC [18]: 4 µM (≈ 6.29 µg/mL)
MIC (Pseudomonas aeruginosa): 16 µM (≈ 25.2 µg/mL)
MIC [19]: 16 µM (≈ 25.2 µg/mL)
MIC [13]: 4 µM and > 2 µM
MIC [20]: 4 µM (≈ 6.29 µg/mL)
MIC (Staphylococcus aureus): 8 µM (≈ 12.6 µg/mL)
MIC [21]: 2 µM (≈ 3.15 µg/mL)
MIC [22]: 2 µM (≈ 3.15 µg/mL)
MIC [23]: 4 µM (≈ 6.29 µg/mL)
SMILES: NC(=O)[C@H](CCCN=C(N)N)NC(=O)[C@H](Cc1c[nH]c2ccccc12)NC(=O)[C@H](CCCN=C(N)N)NC(=O)[C@H](Cc1c[nH]c2ccccc12)NC(=O)[C@H](Cc1c[nH]c2ccccc12)NC(=O)[C@H](Cc1c[nH]c2ccccc12)NC(=O)[C@H](CCCN=C(N)N)NC(=O)[C@H](Cc1c[nH]c2ccccc12)NC(=O)[C@@H](N)CCCN=C(N)N [RWRWWWRWR]

MIC [24]: ≥ 133 µM
MIC [11]: 158 µM (≈ 83.9 µg/mL)
MIC [25]: ≥ 186 µM
MIC [13]: 172 µM (≈ 91.4 µg/mL)
SMILES: CC[C@H](C)[C@H](NC(=O)[C@@H](N)CO)C(=O)N[C@@H](CO)C(=O)N[C@@H](CC(C)C)C(=O)N[C@@H](CC(C)C)C(=O)O [SISLL]

MIC [9]: > 64 µM
MIC [12]: > 64 µM
MIC (Klebsiella pneumoniae): > 64 µM
MIC [17]: > 64 µM
MIC (Escherichia coli): > 64 µM
MIC [26]: ≥ 64 µM
MIC (Pseudomonas aeruginosa): > 64 µM
MIC (Escherichia coli K99): ≥ 64 µM
MIC [13]: > 64 µM
MIC (Acinetobacter baumannii): ≥ 64 µM
MIC [27]: ≥ 64 µM
MIC [28]: ≥ 64 µM
MIC (Escherichia coli UB1005): ≥ 64 µM
MIC (Escherichia coli K88): ≥ 64 µM
MIC [29]: ≥ 64 µM
SMILES: CC(C)[C@H](N)C(=O)N[C@@H](CCCCN)C(=O)N1CCC[C@H]1C(=O)N[C@H](C(=O)N[C@H](C(=O)N[C@@H](CCCCN)C(=O)N1CCC[C@H]1C(=O)N[C@H](C(=O)N[C@H](C(=O)N[C@@H](CCCCN)C(=O)N1CCC[C@H]1C(=O)N[C@H](C(=O)N[C@H](C(=O)N[C@@H](CCCCN)C(=O)N1CCC[C@H]1C(=O)N[C@H](C(=O)N[C@H](C(=O)N[C@@H](CCCCN)C(=O)N1CCC[C@H]1C(=O)N[C@H](C(=O)N[C@H](C(=O)N[C@@H](CCCCN)C(=O)N1CCC[C@H]1C(=O)N[C@H](C(=O)N[C@H](C(=O)N[C@@H](CCCCN)C(=O)N1CCC[C@H]1C(=O)N[C@H](C(N)=O)C(C)C)C(C)C)C(C)C)C(C)C)C(C)C)C(C)C)C(C)C)C(C)C)C(C)C)C(C)C)C(C)C)C(C)C)C(C)C [VKPVVKPVVKPVVKPVVKPVVKPVVKPV]
